Results on two compounds are retold here after patent publication US8143236B2, “Chemoprotective methods” (BioNumerik Pharmaceuticals, Inc., priority 2006, dated 2012).

Molecules are shown by their SMILES.

Data set [1] concerns chemotherapy-induced peripheral neuropathy. Description: Japan Phase III Clinical Trial, NSCLC patients receiving paclitaxel and cisplatin. The class given is in vivo, human. The conditions noted are these: NSCLC; paclitaxel/Tavocept/cisplatin vs paclitaxel/saline placebo/cisplatin. How it is done:
(§1) The Japan Phase III Clinical Trial was conducted as a double-blind study because peripheral neuropathy is diagnosed based on subjective symptoms evaluated through clinical interviews, lab tests, and the like. Accordingly, evaluations by both physicians and patients are highly important. […] A placebo was used as control since there is no established therapy or drug for preventing peripheral neuropathy. Because the severity of peripheral neuropathy is evaluated based on patients' reports (i.e., subjective symptoms), the Patient Neurotoxicity Questionnaire (PNQ©) (also known as the Peripheral Neuropathy Questionnaire) was used in primary evaluation. The CIPN-20 questionnaire and the National Cancer Institute-Common Toxicity Criteria (NCI-CTC) were used in secondary evaluation. The incidence and severity of adverse reactions, time to their onset, etc. and the like, were compared between patients treated with Tavocept™ and those given a placebo using the aforementioned methods.
(§2) The Primary Endpoint of the Japan Phase III Clinical Trial described in the present invention was specifically designed to test the hypothesis of whether chemotherapy-induced intermittent peripheral neuropathy would occur. The utilization of physical examination, laboratory tests, and highly detailed patient evaluation, especially utilizing the Patient Neurotoxicity Questionnaire (PNQ©), also known as the Peripheral Neuropathy Questionnaire, was responsible for the identification and characterization of this novel intermittent form of chemotherapy-induced peripheral neuropathy. The results illustrated in FIG. 3 indicate that intermittent peripheral neuropathy was specifically identified and measured in the Japan Phase III Clinical Trial. […] Additionally, the results illustrated in FIG. 4 and FIG. 5 also support the finding that the Formula (I) compound, Tavocept™, can mitigate and/or prevent intermittent peripheral neuropathy. FIG. 4 provides data supporting the merit of utilizing the Patient Neurotoxicity Questionnaire (PNQ©), also known as the Peripheral Neuropathy Questionnaire, and the Generalized Estimating Equation (GEE) statistical method to evaluate intermittent and cumulative peripheral neuropathy.

Test in data set [2]: as above
The class given is in vivo, human. How it is done: as §1, §2

Data set [3] deals with paclitaxel-induced thermoparesthesia. Briefly: Paclitaxel-induced thermoparesthesia model. It is filed as in vivo, rats.
For data set [4], the system named is paclitaxel-induced decreases in NCV. Description: Paclitaxel-induced decrease in nerve conduction velocity (NCV). It is filed as in vivo. The conditions noted are these: rats; paclitaxel 6 mg/kg i.v. 5 times every other day; 1,000 mg/kg i.v. immediately after paclitaxel.
The conditions of data set [5]: after intravenous administration; intracellular glutathione as a cofactor; cited from earlier work.
The subject of data set [6] is decreases in NCV by cisplatin. Description: Cisplatin-induced decrease in nerve conduction velocity (NCV). The conditions noted are these: rats, cisplatin 2 mg/kg i.p. twice a week for 6 weeks, 1,000 mg/kg i.v. immediately before cisplatin. It is filed as in vivo. The method, then:
Effects of the Formula (I) compound, Tavocept™ (dimesna; disodium 2,2′-dithio-bis-ethane sulfonate), on decreases in nerve conduction velocity (NCV) induced by cisplatin (2 mg/kg) administered by i.p. injection twice a week for 6 consecutive weeks were evaluated in rats.

Data set [7] in a line: Randomized double-blind placebo-controlled clinical study with paclitaxel: hypersensitivity Adverse Events by infusion time and concentration (FIG. 1). The class given is in vivo, human. The conditions noted are these: for proportion of patients with at least one hypersensitivity Adverse Event: entire treated population: paclitaxel plus either placebo or drug (1:1). How it is done: FIG. 1 illustrates a comparison of the number of hypersensitivity Adverse Events between groups of patients in whom 2,2′-dithio-bis-ethane sulfonate or a placebo was infused over (1) 30 minutes, (2) 30 and 45 minutes, or (3) 45 minutes. The chemotherapeutic agent administered was paclitaxel. In this Figure, n=#, equals the number of patients.
New methods of administration of agents such as 2,2′-dithio-bis-ethane sulfonate, pharmaceutically-acceptable salts, and/or an analog thereof, have now been discovered in connection with a human clinical study comprising a randomized, double-blind, placebo-controlled study with a 1:1 randomization. Initial blinded study results support the ability of compounds such as 2,2′-dithio-bis-ethane sulfonate to markedly enhance overall safety, decrease overall Adverse Events, decrease hypersensitivity-based Adverse Events, and increase the time of Adverse Event onset, while maintaining at least the same therapeutic indices (e.g. dose level administered in a prescribed specific time schedule, including duration of administration and frequency), and reduction, prevention, mitigation, and/or delay of toxicities associated with the administration of chemotherapeutic agents.
This reduction in the proportion of patients experiencing hypersensitivity reactions overall represents a medically significant difference in such adverse reactions. It represents a reduction in the risk of an observed potentially serious and life-threatening Adverse Event by approximately 29% in the entire study population (i.e., both placebo and 2,2′-dithio-bis-ethane sulfonate populations).
FIG. 1 illustrates a comparison of the number of hypersensitivity Adverse Events between groups of patients in whom 2,2′-dithio-bis-ethane sulfonate or a placebo was infused over (1) 30 minutes, (2) 30 minutes and 45 minutes, or (3) 45 minutes. In addition, the total number of hypersensitivity Adverse Events, the mean time to the first hypersensitivity Adverse Event, and a variety of the types of hypersensitivity Adverse Events were also shown. […] This reduction in the proportion of patients experiencing hypersensitivity Adverse Events overall represents a reduction in the risk of an observed potentially serious and life-threatening Adverse Event by approximately 29% in the entire study population (i.e., both placebo and disodium 2,2′-dithio-bis-ethane sulfonate populations).

The test system of data set [8] is tubulin. As to conditions: in vitro; paclitaxel 6 μM; cited from earlier work.
Data set [9] has as its system sciatic and tibial nerves. Description: Histopathological abnormalities of sciatic and tibial nerves caused by paclitaxel. It is filed as in vivo. As to conditions: paclitaxel 30 mg/kg i.v. every other day (3 doses); 2,000 mg/kg i.v. immediately after paclitaxel.
The conditions of data set [10]: in vivo; cited from earlier work.

As for `O=S(=O)([O-])CCSSCCS(=O)(=O)[O-].[Na+].[Na+]` [Tavocept™, disodium 2,2′-dithio-bis-ethane sulfonate], in data set [1], the “reduction in severe (Grade D or E) intermittent or cumulative peripheral neuropathy (FIG. 5)” value is approximately 50%. The “survival of patients with NSCLC” value in data set [2] (Tavocept and chemotherapy) is on record as “medically important increase in survival”. Besides, the “survival time of patients with adenocarcinoma” value in data set [2] (Tavocept and chemotherapy) was “medically important increase in survival time”. For the same compound, the “chemotherapy-induced anemia, nausea/vomiting, fatigue, and kidney damage” value in [2] (clinical trial population) was “medically important reductions”. Moreover, the “hematological function (hemoglobin, hematocrit, erythrocyte levels)” value in data set [2] (patients with non-small cell lung carcinoma and adenocarcinoma) is “maintenance or stimulation of hematological function”. Moreover, the “inhibition rates of thermoparesthesia caused by paclitaxel” value in [3] (paclitaxel 12 mg/kg i.p. once a week for 5 weeks, 2,000 mg/kg i.v. immediately after paclitaxel) is recorded as 19.2-34.1%. In addition, the “maximum inhibition rate of paclitaxel-induced thermoparesthesia” value amounted to 41.7% in data set [3] (rats, paclitaxel 6 mg/kg i.v. 5 times every other day, 1,000 mg/kg) and 41.5% in data set [3] (rats, paclitaxel 6 mg/kg i.v. 5 times every other day, 2,000 mg/kg). The “inhibition of paclitaxel-induced thermoparesthesia” value in [3] (rats, paclitaxel 6 mg/kg i.v. 5 times every other day, 1,000 mg/kg i.v. immediately after paclitaxel) is 27.5-59.2%. Further, in [4], the “inhibition of paclitaxel-induced decreases in NCV” value amounted to 92.2%. In addition, the uptake and metabolism entry in [5] is “rapidly taken up in the kidney and metabolized into mesna”. Also, the “inhibition rate of decreases in NCV by cisplatin” value in data set [6] (5 weeks after starting cisplatin) is listed as 53.6%; in data set [6] (6 weeks after starting cisplatin) it was 64.7%. In addition, the “proportion of patients with at least one hypersensitivity Adverse Event” value is given as “approximately 30%” in data set [7] (100 mg/mL over 45 minutes) and “approximately 42%” in data set [7] (200 mg/mL over 30 minutes). In data set [7] (45 min 100 mg/mL vs 30 min 200 mg/mL, absolute difference), the “reduction in the overall proportion of patients experiencing hypersensitivity reactions” value was “approximately 12%”. Further, the “reduction in hypersensitivity Adverse Events in the drug treatment population” value in [7] (45 min 100 mg/mL vs 30 min 200 mg/mL, assumes no placebo effect) is on record as not above 57%. Further, the “reduction in the risk of hypersensitivity Adverse Event in the entire study population” value in data set [7] (45 min 100 mg/mL vs 30 min 200 mg/mL, placebo and drug populations together) is recorded as “approximately 29%”. For the same compound, in data set [8], the “concentration at which tubulin polymerization induced by paclitaxel is inhibited” value was 6 mM. Besides, the “increases in the incidence of histopathological abnormalities of the sciatic and tibial nerves” value in data set [9] is “inhibited”.
With `N.N.[Cl][Pt][Cl]` [cisplatin], the “cumulative dose above which cisplatin-induced neuropathy usually occurs” value in data set [10] is “exceeds 300 mg/m^2”.
